Test results as given in patent publication US4923963A, “Bradykinin antagonist peptides” (Nova Technology Limited Partnership, priority 1987, dated 1990).
Read-outs that look alike come from different tables or passages of the source. Square brackets hold non-standard residues; d marks the D form. Peptide text beside a SMILES is read from it. d2Nal = N[C@H](Cc1ccc2ccccc2c1)C(=O)O; Hyp = O=C(O)[C@@H]1C[C@@H](O)CN1; 2Thi = N[C@@H](Cc1cccs1)C(=O)O; d2Thi = N[C@H](Cc1cccs1)C(=O)O

Experiments:
isolated rat uterus = assay type: cell-based
Description: The bradykinin antagonists were assayed on isolated rat uterus in natural or induced estrus and on guinea pig ileum, according to the commonly accepted assay methods for bradykinin and related kinins as described by Trautschold (Handbook of Expt. Pharmacol. Vol 25, Springer Verlag, pp. 53-55, 1970) for inhibition of the myotropic activity of bradykinin. The inhibition potencies, as determined according to the commonly accepted manner described by Schild for antagonists of biologically active compounds (Br. J. Pharmacol. 2:189, 1947), and expressed as pA2 values are determined on isolated rat uterus (RUT) and isolated guinea pig ileum (GPI). In the assays, a dose-response curve is determined for the reference substance bradykinin. The dose of bradykinin which produced a half maximal contraction of tissue is the ED50 dose. An amount of bradykinin equivalent to twice the ED50 dose is administered to the tissue 30 seconds after the start of incubation of the tissue with a dose of antagonist. Doses of antagonist are increased in this protocol until pre-incubation with a dose of antagonist reduces the contraction in response to the double ED50 dose of bradykinin to response of a single ED50 dose of bradykinin. The pA2 value represents the negative logarithm of the molar concentration of antagonist necessary to reduce the response of a double ED50 dose of bradykinin to that of an ED50 dose. One unit of pA2 value represents an order of magnitude change in potency. For comparison, the negative log of the dose of BK, the dose which causes half maximal contraction of the tissues, is commonly known as the pD2 value. The pD2 value for bradykinin is 7.9 on the rat uterus and 7.4 on the guinea pig ileum.

rat blood pressure = assay: effects on blood pressure in the anesthetized rat (RBP), intraaortic and intravenous bolus; assay type: in vivo
Description: The in vivo effects of bradykinin antagonists on blood pressure in the anesthetized rat are determined according to the assay described by Roblero, Ryan and Stewart (Res. Commun. Pathol. Pharmacol. 6:207, 1973). The antagonists also produce inhibition of the bradykinin response when injected as a bolus admixture of bradykinin plus antagonist by either the ia or iv route of administration.

[1] = rat blood pressure, intraaortic bolus
[2] = rat blood pressure, intravenous bolus
[3] = isolated rat uterus, number of tissues in parentheses

## CC[C@H](C)[C@H](NC(=O)[C@H](CCCNC(=N)N)NC(=O)[C@H](Cc1ccccc1)NC(=O)[C@@H](Cc1ccccc1)NC(=O)[C@H](CO)NC(=O)[C@H](Cc1ccccc1)NC(=O)CNC(=O)[C@@H]1CCCN1C(=O)[C@@H]1CCCN1C(=O)[C@@H](N)CCCNC(=N)N)C(=O)N[C@@H](Cc1ccc(O)cc1)C(=O)O [Example 63, Arg-Pro-Pro-Gly-Phe-Ser-DPhe-Phe-Arg-Ile-Tyr] (H-RPPGFS[dF]FRIY-OH)
Isolated rat uterus; isolated rat uterus
  pA2 /RUT: agonist potency as percent of BK potency: 0.6%
Rat blood pressure; [1]
  RBP-IA: agonist potency as percent of BK potency: 0.2%
Rat blood pressure; [2]
  RBP-IV: agonist potency as percent of BK potency: 2%
Rat blood pressure; relative to BK = 100%
  % DESTR (metabolic breakdown of BK-like agonists in RBP assay): 70%

## CC[C@@H](C)[C@@H](NC(=O)[C@H](CCCNC(=N)N)NC(=O)[C@H](Cc1ccccc1)NC(=O)[C@@H](Cc1ccccc1)NC(=O)[C@H](CO)NC(=O)[C@H](Cc1ccccc1)NC(=O)CNC(=O)[C@@H]1CCCN1C(=O)[C@@H]1CCCN1C(=O)[C@@H](N)CCCNC(=N)N)C(=O)N[C@@H](Cc1ccc(O)cc1)C(=O)O [Example 69, Arg-Pro-Pro-Gly-Phe-Ser-DPhe-Phe-Arg-DIle-Tyr] (H-RPPGFS[dF]FR[dI]Y-OH)
Rat blood pressure; [1]
  RBP-IA: agonist potency as percent of BK potency: 0.3%
Rat blood pressure; [2]
  RBP-IV: agonist potency as percent of BK potency: 2%
Rat blood pressure; relative to BK = 100%
  % DESTR (metabolic breakdown of BK-like agonists in RBP assay): 75%

## N=C(N)NCCC[C@@H](N)C(=O)N[C@@H](CCCNC(=N)N)C(=O)N1CCC[C@H]1C(=O)N1CCC[C@H]1C(=O)NCC(=O)N[C@@H](Cc1cccs1)C(=O)N[C@@H](CO)C(=O)N[C@H](Cc1ccccc1)C(=O)N[C@@H](Cc1cccs1)C(=O)N[C@H](CCCNC(=N)N)C(N)=O [Example 57, DArg-Arg-Pro-Pro-Gly-Thi-Ser-DPhe-Thi-DArf-NH2] (H-[dR]RPPG[2Thi]S[dF][2Thi][dR]-NH2)
Isolated rat uterus; isolated rat uterus
  pA2 /RUT: agonist potency as percent of BK potency: 0.003%

## CC[C@H](C)[C@H](NC(=O)[C@H](CCCNC(=N)N)NC(=O)[C@H](Cc1cccs1)NC(=O)[C@@H](Cc1ccccc1)NC(=O)[C@H](CO)NC(=O)[C@H](Cc1cccs1)NC(=O)CNC(=O)[C@@H]1CCCN1C(=O)[C@@H]1CCCN1C(=O)[C@@H](N)CCCNC(=N)N)C(=O)N[C@@H](Cc1ccc(O)cc1)C(=O)O [Example 65, Arg-Pro-Pro-Gly-Thi-Ser-DPhe-Thi-Arg-Ile-Tyr] (H-RPPG[2Thi]S[dF][2Thi]RIY-OH)
Isolated rat uterus; isolated rat uterus
  pA2 /RUT: agonist potency as percent of BK potency: 0.5%
Rat blood pressure; [1]
  RBP-IA: agonist potency as percent of BK potency: 0.06%
Rat blood pressure; [2]
  RBP-IV: agonist potency as percent of BK potency: 6%
Rat blood pressure; relative to BK = 100%
  % DESTR (metabolic breakdown of BK-like agonists in RBP assay): 0%

## CC[C@H](C)[C@H](NC(=O)[C@H](CCCNC(=N)N)NC(=O)[C@H](Cc1cccs1)NC(=O)[C@@H](Cc1ccccc1)NC(=O)[C@H](CO)NC(=O)[C@H](Cc1cccs1)NC(=O)CNC(=O)[C@@H]1C[C@@H](O)CN1C(=O)[C@@H]1CCCN1C(=O)[C@@H](N)CCCNC(=N)N)C(=O)N[C@@H](Cc1ccc(O)cc1)C(=O)O [Example 67, Arg-Pro-Hyp-Gly-Thi-Ser-DPhe-Thi-Arg-Ile-Tyr] (H-RP[Hyp]G[2Thi]S[dF][2Thi]RIY-OH)
Isolated rat uterus; isolated rat uterus
  pA2 /RUT: agonist potency as percent of BK potency: 0.06%

## N=C(N)NCCC[C@H](NC(=O)[C@H](Cc1cccs1)NC(=O)[C@@H](Cc1ccccc1)NC(=O)[C@H](CO)NC(=O)[C@H](Cc1cccs1)NC(=O)CNC(=O)[C@@H]1CCCN1C(=O)[C@@H]1CCCN1C(=O)[C@@H](Cc1ccc2ccccc2c1)NC(=O)[C@H](N)Cc1ccc2ccccc2c1)C(=O)O [Example 25, DNal-DNal-Pro-Pro-Gly-Thi-Ser-DPhe-Thi-Arg] (H-[d2Nal][d2Nal]PPG[2Thi]S[dF][2Thi]R-OH)
Isolated rat uterus; [3]
  pA2 /RUT (antagonist potency): 5.6

## N=C(N)NCCC[C@H](NC(=O)[C@H](CCCCN)NC(=O)[C@@H](N)CCCCN)C(=O)N1CCC[C@H]1C(=O)N1CCC[C@H]1C(=O)NCC(=O)N[C@@H](Cc1cccs1)C(=O)N[C@@H](CO)C(=O)N[C@H](Cc1ccccc1)C(=O)N[C@@H](Cc1cccs1)C(=O)N[C@H](CCCNC(=N)N)C(=O)O [Example 44, Lys-Lys-Arg-Pro-Pro-Gly-Thi-Ser-DPhe-Thi-DArg] (H-KKRPPG[2Thi]S[dF][2Thi][dR]-OH)
Rat blood pressure; rat, in vivo
  % DESTR (metabolic breakdown of BK-like agonists in RBP assay): 0%
  RBP-IA: agonist potency as percent of BK potency: 0.2%
Rat blood pressure; rat, in vivo, iv
  RBP-IV: agonist potency as percent of BK potency: 14%

## N=C(N)NCCC[C@H](NC(=O)[C@H](Cc1ccccc1)NC(=O)[C@@H](Cc1ccccc1)NC(=O)[C@H](CO)NC(=O)[C@H](Cc1ccccc1)NC(=O)CNC(=O)[C@@H]1CCCN1C(=O)[C@@H]1CCCN1C(=O)[C@@H](N)CCCNC(=N)N)C(=O)O [Example 1, Arg-Pro-Pro-Gly-Phe-Ser-DPhe-Phe-Arg] (H-RPPGFS[dF]FR-OH)
Isolated rat uterus; [3]
  pA2 /RUT (antagonist potency): 5.0

## N=C(N)NCCC[C@@H](N)C(=O)N[C@H](Cc1ccc2ccccc2c1)C(=O)N1CCC[C@H]1C(=O)N1CCC[C@H]1C(=O)NCC(=O)N[C@@H](Cc1cccs1)C(=O)N[C@@H](CO)C(=O)N[C@H](Cc1ccccc1)C(=O)N[C@@H](Cc1cccs1)C(=O)N[C@@H](CCCNC(=N)N)C(=O)O [Example 23, DArg-DNal-Pro-Pro-Gly-Thi-Ser-DPhe-Thi-Arg] (H-[dR][d2Nal]PPG[2Thi]S[dF][2Thi]R-OH)
Isolated rat uterus
  pA2 /RUT (antagonist potency): 5.8

## CC[C@@H](C)[C@@H](NC(=O)[C@H](CCCNC(=N)N)NC(=O)[C@H](Cc1cccs1)NC(=O)[C@@H](Cc1ccccc1)NC(=O)[C@H](CO)NC(=O)[C@H](Cc1cccs1)NC(=O)CNC(=O)[C@@H]1C[C@@H](O)CN1C(=O)[C@@H]1CCCN1C(=O)[C@@H](N)CCCNC(=N)N)C(=O)N[C@@H](Cc1ccc(O)cc1)C(=O)O [Example 73, Arg-Pro-Hyp-Gly-Thi-Ser-DPhe-Thi-Arg-DIle-Tyr] (H-RP[Hyp]G[2Thi]S[dF][2Thi]R[dI]Y-OH)
Isolated rat uterus; isolated rat uterus
  pA2 /RUT: agonist potency as percent of BK potency: 0.04%

## N=C(N)NCCC[C@H](NC(=O)[C@H](Cc1cccs1)NC(=O)[C@@H](Cc1ccccc1)NC(=O)[C@H](CO)NC(=O)[C@H](Cc1cccs1)NC(=O)CNC(=O)[C@@H]1CCCN1C(=O)[C@@H]1CCCN1C(=O)[C@H](CCCNC(=N)N)NC(=O)[C@H](CCCCN)NC(=O)[C@@H](N)CCCCN)C(N)=O [Example 54, Lys-Lys-Arg-Pro-Pro-Gly-Thi-Ser-DPhe-Thi-Arg-NH2] (H-KKRPPG[2Thi]S[dF][2Thi]R-NH2)
Isolated rat uterus
  pA2 /RUT: agonist potency as percent of BK potency: 0.02%

## CC[C@@H](C)[C@@H](NC(=O)[C@H](CCCNC(=N)N)NC(=O)[C@H](Cc1cccs1)NC(=O)[C@@H](Cc1ccccc1)NC(=O)[C@H](CO)NC(=O)[C@H](Cc1cccs1)NC(=O)CNC(=O)[C@@H]1CCCN1C(=O)[C@@H]1CCCN1C(=O)[C@@H](N)CCCNC(=N)N)C(=O)N[C@@H](Cc1ccc(O)cc1)C(=O)O [Example 71, Arg-Pro-Pro-Gly-Thi-Ser-DPhe-Thi-Arg-DIle-Tyr] (H-RPPG[2Thi]S[dF][2Thi]R[dI]Y-OH)
Rat blood pressure; [1]
  RBP-IA: agonist potency as percent of BK potency: 0.2%
Rat blood pressure; [2]
  RBP-IV: agonist potency as percent of BK potency: 2%
Rat blood pressure; relative to BK = 100%
  % DESTR (metabolic breakdown of BK-like agonists in RBP assay): 55%

## N=C(N)NCCC[C@H](NC(=O)[C@H](Cc1cccs1)NC(=O)[C@@H](Cc1ccccc1)NC(=O)[C@H](CO)NC(=O)[C@H](Cc1cccs1)NC(=O)CNC(=O)[C@@H]1CCCN1C(=O)[C@@H]1CCCN1C(=O)[C@H](N)Cc1ccc2ccccc2c1)C(=O)O [Example 22, DNal-Pro-Pro-Gly-Thi-Ser-DPhe-Thi-Arg] (H-[d2Nal]PPG[2Thi]S[dF][2Thi]R-OH)
Isolated rat uterus
  pA2 /RUT (antagonist potency): 5.6

## N=C(N)NCCC[C@H](NC(=O)[C@H](Cc1ccccc1)NC(=O)[C@@H](Cc1cccs1)NC(=O)[C@H](CO)NC(=O)[C@H](Cc1ccccc1)NC(=O)CNC(=O)[C@@H]1C[C@@H](O)CN1C(=O)[C@@H]1CCCN1C(=O)[C@H](N)Cc1cccs1)C(=O)O [Example 34, DThi Pro-Hyp-Gly-Phe-Ser-DThi-Phe-Arg] (H-[d2Thi]P[Hyp]GFS[d2Thi]FR-OH)
Isolated rat uterus; isolated rat uterus, not quantitated
  pA2 /RUT: activity class: 0
